Results reported in patent publication US20040267001A1, “Genes encoding baeyer-villiger monooxygenases” (priority 2001, published 2004).

Tests used:
Experiment in all cases: chnB monooxygenase activity assay, NADPH oxidation at 340 nm, purified over-expressed enzyme
Type in all cases: biochemical
[1] = system: Rhodococcus sp. phi1 chnB monooxygenase; details: 1.25 mM substrate, pH 7.5; ND = No Activity Detected
Text: (§1) Following amplification, the chnB gene fragments were cloned into pTrcHis-TOPO TA vectors with either an N-terminal tail or C-terminal tail, as provided by the vector sequence (N-terminal tail for Brevibacterium sp. HCU, Rhodococcus sp. phi1, Rhodococcus sp. phi2, and Arthrobacter sp. BP2 monooxygenases; C-terminal tail for Acinetobacter sp. SE19 and Acidovorax sp. CHX monooxygenases). These vectors were transformed into E. coli, with transformants grown in Luria-Bertani broth supplemented with ampicillin (100 ug/ml) and riboflavin (0.1 ug/ml) at 30° C. until the absorbance at 600 nm (A600) reached 0.5. When the A600 was reached, the temperature was shifted to 16° C.
(§2) The encoded monooxygenase sequences were expressed upon addition of IPTG to the culture media, 30 min after the temperature shift to 16° C. The cultures were grown further ovemight (14 hrs) and harvested by centrifugation in a cold centrifuge. The cells were treated with lysozyme (100 mg/ml) for 30 min on ice and sonicated. Following sonication, cell extracts were centrifuged and the supernatant was equilibrated with Ni-NTA resin (Qiagen, Valencia, Calif.) for 1 hr at 4° C. Protein bound resin was washed successively with increasing concentrations of imidazole buffer until the protein of interest was released from the resin. The purified protein was concentrated and the buffer exchanged to remove the imidazole. The protein concentration was adjusted to 1 ug/ml.
(§3) Compounds were selected on the basis of previous observations by van der Werf (J. Biochem. 347:693-701 (2000)) and Miyamoto et al. (Biochimica et Biophysica Acta 1251: 115-124 (1995)) and by searches for the ketone substructure.
(§4) All compounds were obtained from Sigma-Aldrich with only two exceptions. Levoglucosenone was obtained from Toronto Research Chemicals, Inc. and dimethyl-2-piperidone was prepared according to U.S. Pat. No. 6,077,955. For enzyme assays all compounds were dissolved to a concentration of 0.1 M in methanol, with the exceptions of norcamphor (dissolved in ethyl acetate), cyclododecanone, cycltridecanone and cyclopentadecanone (dissolved in propanol), and levoglucosenone (dissolved with acetone).
(§5) The monooxygenase activity of each over-expressed enzyme was assayed spectrophotometrically at 340 nm by monitoring the oxidation of NADPH. Assays were performed in individual quartz cuvettes, with a pathlength of 1 cm. […] An Ultrospec 4000 (Pharmacia Biotech, Cambridge, England) was used to read the absorbance of the samples over a two to ten minute time period and the SWIFT (Pharmacia Biotech) program was used to calculate the slope of the reduction in absorbance over time. For the Brevibactedum sp. […] Monooxygenase activity of each over-expressed enzyme is shown in Table 5, with respect to each ketone substrate. The specific activity values listed are given in umol/min/mg. The notation “ND” refers to “No Activity Detected”.

[2] = system: Arthrobacter sp. BP2 chnB monooxygenase; details: 1.25 mM substrate, pH 7.5; ND = No Activity Detected
Text: as §1, §2, §3, §4, §5

[3] = system: Brevibacterium sp. HCU chnB1 monooxygenase; details: 1.25 mM substrate, pH 7.5; ND = No Activity Detected
Text: as §1, §2, §3, §4, §5

[4] = target: T1, Acinetobacter sp. SE19 chnB monooxygenase (Acinetobacter sp., UniProt Q9F7E4); details: 1.25 mM substrate, pH 7.5; ND = No Activity Detected
T1 construct: isolated full length BVMO genes from Brevibacterium sp; HCU, Acinetobacter SE19; C-terminal tail provided by the pTrcHis-TOPO vector (C); made in house; host or cells: E. coli
Text: as §1, §2, §3, §4, §5

[5] = system: Brevibacterium sp. HCU chnB2 monooxygenase; details: 1.25 mM substrate, pH 7.5; rates multiplied by a factor of 3.25 to adjust for decrease in activity due to storage; ND = No Activity Detected
Text: as §1, §2, §3, §4, §5

[6] = system: Acidovorax sp. CHX chnB monooxygenase; details: 1.25 mM substrate, pH 7.5; ND = No Activity Detected
Text: as §1, §2, §3, §4, §5

[7] = system: Rhodococcus sp. phi2 chnB monooxygenase; details: 1.25 mM substrate, pH 7.5; ND = No Activity Detected
Text: as §1, §2, §3, §4, §5

Structure (SMILES)	Specific Activity of Monooxygenase Enzymes Against Various Ketone Substrates, sp. phi1 chnB [1]	Specific Activity of Monooxygenase Enzymes Against Various Ketone Substrates, sp. BP2 chnB [2]	Specific Activity of Monooxygenase Enzymes Against Various Ketone Substrates, sp. HCU chnB1 [3]	Specific Activity of Monooxygenase Enzymes Against Various Ketone Substrates, sp. SE19 chnB [4]	Specific Activity of Monooxygenase Enzymes Against Various Ketone Substrates, sp. HCU chnB2 [5]	Specific Activity of Monooxygenase Enzymes Against Various Ketone Substrates, sp. CHX chnB [6]	Specific Activity of Monooxygenase Enzymes Against Various Ketone Substrates, sp. phi2 chnB [7]
O=C1CCCCC1=O [1,2-cyclohexanedione]	0.083 µmol/min/mg	0.237 µmol/min/mg	0.787 µmol/min/mg	0.077 µmol/min/mg	0.416 µmol/min/mg	0.096 µmol/min/mg	
O=C1CCCC(=O)C1 [1,3-cyclohexanedione]		0.397 µmol/min/mg	0.237 µmol/min/mg	0.237 µmol/min/mg	0.978 µmol/min/mg	0.032 µmol/min/mg	0.141 µmol/min/mg
O=C1CCC(=O)CC1 [1,4-cyclohexanedione]	3.302 µmol/min/mg	3.994 µmol/min/mg	3.405 µmol/min/mg	8.346 µmol/min/mg	1.123 µmol/min/mg	0.794 µmol/min/mg	6.150 µmol/min/mg
CC1CCCCC1=O (stereo not drawn) [2-methyl-cyclohexanone]	4.774 µmol/min/mg	4.205 µmol/min/mg	2.714 µmol/min/mg	9.990 µmol/min/mg	1.622 µmol/min/mg	0.627 µmol/min/mg	5.952 µmol/min/mg
O=C1CCCCC1c1ccccc1 (stereo not drawn) [2-phenyl-cyclohexanone]	1.050 µmol/min/mg		1.459 µmol/min/mg	5.370 µmol/min/mg	0.104 µmol/min/mg	0.192 µmol/min/mg	0.730 µmol/min/mg
CCCCCCCCCCCC(C)=O [2-tridecanone]	0.160 µmol/min/mg				0.187 µmol/min/mg	0.096 µmol/min/mg	1.690 µmol/min/mg
O=C1CCC1 [Cyclobutanone]	0.102 µmol/min/mg	0.128 µmol/min/mg		0.109 µmol/min/mg	0.374 µmol/min/mg		0.154 µmol/min/mg
O=C1CCCCCCCCC1 [Cyclodecanone]	0.077 µmol/min/mg	0.166 µmol/min/mg		0.320 µmol/min/mg		0.160 µmol/min/mg	0.205 µmol/min/mg
O=C1CCCCCCCCCCC1 [Cyclododecanone]		0.198 µmol/min/mg		0.122 µmol/min/mg	0.229 µmol/min/mg	0.051 µmol/min/mg	0.122 µmol/min/mg
